Reference: PMC11541513, “Inhibitory Effects of Mangifera indica Secondary Metabolites and Their Synthetic Derivatives against SARS-CoV-2 M^pro and NS2B/NS3 (ZIKV and DENV-2)” (ACS Omega, 2024)
Where “and” joins values, the source holds several entries; their conditions need not be identical. Equal values may be shown once. Read-outs that look alike come from different tables or passages of the source.

Legend:
SARS-CoV-2 M^pro = target: T1, SARS-CoV-2 M^pro (Severe acute respiratory syndrome coronavirus 2, UniProt P0DTD1); test: SARS-CoV-2 M^pro inhibition assay (chromogenic peptide substrate); format: biochemical; conditions: for inhibition at 200 µM: read-out: effect at 200 μM (%); for obs.: observation at the end of the M^pro experiment; for solubility during the biological testing: result in words, M^pro testing; for IC50: M^pro, substrate 200 μM
T1 construct: 30 μL of Mpro enzyme (Sigma-Aldrich) at a final concentration of 10 μg/mL; purchased Sigma-Aldrich
Experimental: Inhibitory effects against M^pro of all compounds were evaluated based on the experimental procedure provided by the manufacturer with some modifications.
[…] of chemicals dissolved in DMSO, with a final concentration of 200 μM, were put in triplicate to each well of a 96-well flat bottom microplate. After that, the plate was incubated for 10 min at room temperature with 30 μL of Mpro enzyme (Sigma-Aldrich) at a final concentration of 10 μg/mL diluted in buffer containing 25 mM HEPES (Sigma-Aldrich) and 0.2% of Tween-20 (Sigma-Aldrich). Furthermore, the chromogenic peptide substrate (Thr-Ser-Ala-Val-Leu-Gln-pNA, Sigma-Aldrich) was added in a volume of 10 μL to each well, at a final concentration of 200 μM and incubated for another 45 min at 37 °C. […] As directed by the manufacturer, with minor modifications, the experiment was carried out to ascertain the half-maximum inhibitory concentration (IC50) that may block the activity of the M^pro enzyme. […] The plate was then kept at room temperature for 10 min. Following this time interval, 10 μL of a 200 μM final concentration of chromogenic peptide substrate (Sigma-Aldrich) was added to each well, and the mixture was incubated for an additional 45 min at 37 °C.

[1] = Cytotoxicity against THP-1 cells (resazurin); format: cell-based; conditions: human, THP-1 cells differentiated with PMA, read-out: CC50 ± SD (μM) THP-1
Experimental: (§1) In a 96-well flat bottom microplate, THP-1 cells (12 × 10^4 cells/well) were seeded with 180 μL of RPMI 1640 medium (Sigma-Aldrich) without phenol red supplemented with 10% FBS (Sigma-Aldrich), 2 mM L-glutamine (Gibco), […] (Sigma-Aldrich), 10 U/mL penicillin (Gibco), and 10 μg/mL streptomycin (Gibco) in the presence of 100 ng/mL of phorbol-12-myristate-13-acetate (PMA) (Sigma-Aldrich). The microplate was then incubated at 37 °C in a 5% CO2 atmosphere for 72 h. Vero cells ([…]) were seeded in 180 μL of RPMI 1640 media (Sigma-Aldrich), which was then supplemented with 10% FBS (Sigma-Aldrich), 10 U/mL penicillin (Gibco), and 10 μg/mL streptomycin (Gibco). The cells were then incubated for 24 h at 37 °C in a 5% CO2 environment. Each target chemical, diluted in RPMI-1640 media (Sigma-Aldrich) without FBS, at doses of 150, 50, 16.7, and 5.6 μM, was applied in 20 μL to each of the two cell lines. The positive and negative controls were 50 and 0.3% DMSO (Sigma-Aldrich), respectively. The plates were incubated in an environment containing 5% CO2 for 67 h at 37 °C. Next, 20 μL of resazurin (250 μg/mL) from Sigma-Aldrich was added, and the mixture was incubated at 37 °C for 5 h. The microplate was measured using a Tecan Model Infinite M200 spectrophotometer at 530 and 590 nm in wavelengths. Every experiment was run three times.[23],[24]

[2] = Cytotoxicity against Vero cells (resazurin); format: cell-based; conditions: African green monkey, read-out: CC50 ± SD (μM) Vero
Experimental: as §1

ZIKV NS2B/NS3 = target: T2, ZIKV NS2B/NS3 (Zika virus, UniProt Q32ZE1); test: ZIKV NS2B/NS3 protease fluorogenic substrate assay; format: biochemical; conditions: for inhibition at 20 µM: read-out: screening at 20 μM (%); for inhibition at 100 µM: read-out: screening at 100 μM (%); for mechanism of inhibition: ZIKV NS2B/NS3, IC50 at four substrate concentrations, Dixon plots
T2 construct: tested against the nonstructural protease of ZIKV (NS2B/NS3)
T2 sequence (Q32ZE1 1421-1460): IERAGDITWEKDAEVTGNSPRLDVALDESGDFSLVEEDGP
T2 sequence (Q32ZE1 1499-1676): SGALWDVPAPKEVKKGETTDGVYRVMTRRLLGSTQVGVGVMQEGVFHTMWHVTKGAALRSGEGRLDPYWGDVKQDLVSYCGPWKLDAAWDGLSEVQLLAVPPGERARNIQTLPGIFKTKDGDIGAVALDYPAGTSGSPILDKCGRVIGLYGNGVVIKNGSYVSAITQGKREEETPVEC

DENV-2 NS2B/NS3 = DENV-2 NS2B/NS3 (Dengue virus type 2, UniProt P29990); test: DENV-2 NS2B/NS3 protease fluorogenic substrate assay; conditions: for inhibition at 100 µM: read-out: screening at 100 μM (%), DENV-2 NS2B/NS3, 100 μM compound
Chain of DENV-2 NS2B/NS3 (P29990 1398-1437): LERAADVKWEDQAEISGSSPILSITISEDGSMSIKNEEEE
Chain of DENV-2 NS2B/NS3 (P29990 1476-1653): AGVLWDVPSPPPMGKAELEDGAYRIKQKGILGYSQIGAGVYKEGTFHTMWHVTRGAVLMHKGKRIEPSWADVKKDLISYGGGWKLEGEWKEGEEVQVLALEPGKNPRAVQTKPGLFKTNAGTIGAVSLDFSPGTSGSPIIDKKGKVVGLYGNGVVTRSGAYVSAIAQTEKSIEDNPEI

[3] = inhibitory percentage against M^pro at 200 μM, NA: no activity
[4] = ZIKV NS2B/NS3, substrate 100 μM, read-out: IC50
[5] = IC50 at substrate 50 μM, binding mechanism study, Boc-Gly-Arg-Arg-AMC 50 μM
[6] = IC50 at substrate 100 μM, binding mechanism study, Boc-Gly-Arg-Arg-AMC 100 μM
[7] = IC50 at substrate 150 μM, binding mechanism study, Boc-Gly-Arg-Arg-AMC 150 μM
[8] = IC50 at substrate 200 μM, binding mechanism study, Boc-Gly-Arg-Arg-AMC 200 μM

Molecule | inhibition at 200 µM (SARS-CoV-2 M^pro; [3]) [%] | CC50 at 67 h [1] [µM] | CC50 at 67 h [2] [µM] | IC50 (ZIKV NS2B/NS3; [4]) [µM] | inhibition at 100 µM (DENV-2 NS2B/NS3) [%] | inhibition at 100 µM (ZIKV NS2B/NS3; ZIKV NS2B/NS3, 100 μM compound) [%] | IC50 (SARS-CoV-2 M^pro) [µM] | inhibition at 20 µM (ZIKV NS2B/NS3; ZIKV NS2B/NS3, 20 μM compound) [%] | further results
O=c1c2ccccc2[se]n1-c1ccccc1 [Ebselen, reference compound] | – | – | – | – | – | – | – | – | effect (%) of positive control (SARS-CoV-2 M^pro; Ebselen at 10 μM): 90%
methyl 3,5-dihydroxy-4-methoxybenzoate [Compound 2m] | – | – | – | – | – | – | – | – | effect at 200 μM (%) (SARS-CoV-2 M^pro; [3]): 44.2%
COC(=O)c1cc(OC)c(OC)c(OC)c1 [Compound 2l, Methyl 3,4,5-trimethoxybenzoate] | 55.5 | > 150 | > 150 | – | – | – | – | – | obs. (SARS-CoV-2 M^pro): SP^#; solubility during the biological testing (SARS-CoV-2 M^pro): solubility problems
CCCCCCCCCCCCCCOC(=O)c1cc(O)c(O)c(O)c1 [Compound 2b] | – | – | – | 84.9 ± 9 | 21 ± 3 | – | – | – | inhibition at 20 µM (ZIKV NS2B/NS3): 64 ± 2.5%; inhibition at 100 µM (ZIKV NS2B/NS3): 55 ± 2.3%
CC1(C)CC[C@]2(C)CC=C3[C@]4(C)CC[C@H]5C(C)(C)C(=O)CC[C@]5(C)[C@H]4CC[C@@]3(C)[C@@H]2C1 [Compound 1a, taraxerone] | – | – | – | – | – | – | – | – | effect at 200 μM (%) (SARS-CoV-2 M^pro; [3]): 84.0%; obs. (SARS-CoV-2 M^pro): SP^#; inhibition at 200 µM (SARS-CoV-2 M^pro): 84%; solubility during the biological testing (SARS-CoV-2 M^pro): low solubility
O=C(OCCCc1ccccc1)c1cc(O)c(O)c(O)c1 [Compound 2h] | 45.1 | – | – | 4.8 ± 0.5 | 20 ± 1 | 99 ± 0.2 | – | – | screening at 20 μM (%) (ZIKV NS2B/NS3; ZIKV NS2B/NS3, 20 μM compound): 96 ± 0.4%; inhibition at 20 µM (ZIKV NS2B/NS3): 96%
CC(C)CCOC(=O)c1cc(O)c(O)c(O)c1 [Compound 2e] | 99.5 | 47 ± 6.5 | > 150 | 13 ± 0.4 | > 50 | 99 ± 0.2 | 2.6 ± 1 | 72 ± 3.1 | –
CC1(C)CC[C@]2(C)CC=C3[C@]4(C)CC[C@H]5C(C)(C)[C@@H](O)CC[C@]5(C)[C@H]4CC[C@@]3(C)[C@@H]2C1 [Compound 1, taraxerol] | – | – | – | – | – | – | – | – | effect at 200 μM (%) (SARS-CoV-2 M^pro; [3]): 48.0%; inhibition at 200 µM (SARS-CoV-2 M^pro): 48%
C=CCCOC(=O)c1cc(O)c(O)c(O)c1 [Compound 2c] | 80.4 | 38.8 ± 4.4 | > 150 | > 100 | 18 ± 3 | 48 ± 2.2 | 35.8 ± 4.5 | 25 ± 2.6 | –
CC(C)=CCCC(C)CCOC(=O)c1cc(O)c(O)c(O)c1 (centres unmarked) [Compound 2g] | 73.3 | 32.1 ± 3.4 | 82.1 ± 31.5 | 1.9 ± 0.1 | 28 ± 2 | 97 ± 1.1 | 88.7 ± 11.6 | – | IC50 (ZIKV NS2B/NS3; [5]): 2.93 µM; IC50 (ZIKV NS2B/NS3; [6]): 2.48 µM; IC50 (ZIKV NS2B/NS3; [7]): 2.96 µM; IC50 (ZIKV NS2B/NS3; [8]): 2.03 µM; screening at 20 μM (%) (ZIKV NS2B/NS3; ZIKV NS2B/NS3, 20 μM compound): 99 ± 0.4%; mechanism of inhibition (ZIKV NS2B/NS3): noncompetitive; inhibition at 20 µM (ZIKV NS2B/NS3): 99%
CC(C)OC(=O)c1cc(O)c(O)c(O)c1 [Compound 2a] | 78 | 78.5 ± 8.1 | > 150 | 19.8 ± 0.5 | 48 ± 1 | 98 ± 0.5 | 20.7 ± 8.2 | 51 ± 3.4 | IC50 (DENV-2 NS2B/NS3; IC50 (μM), DENV-2 NS2B/NS3, substrate 100 μM): > 100 µM
C=CCOC(=O)c1cc(O)c(O)c(O)c1 [Compound 2d] | 94.3 | 28.5 ± 3.2 | > 150 | 92.5 ± 3.1 | 29 ± 1 | 53 ± 1.7 | 12.4 ± 2.4 | 25 ± 2.2 | –
O=C(OCCc1ccccc1)c1cc(O)c(O)c(O)c1 [Compound 2j] | 60.8 | 22.9 ± 3.2 | > 150 | 19.7 ± 2.1 | 22 ± 1 | 82 ± 2.7 | – | 50 ± 3.8 | obs. (SARS-CoV-2 M^pro): SP^#; solubility during the biological testing (SARS-CoV-2 M^pro): solubility problems
C=CC(C)(CCC=C(C)C)OC(=O)c1cc(O)c(O)c(O)c1 (centres unmarked) [Compound 2i] | 80 | 98.9 ± 5 | > 150 | – | – | – | 4 ± 0.9 | – | –
CC(C)=CCCC(C)=CCOC(=O)c1cc(O)c(O)c(O)c1 [Compound 2f] | 97 | 72.1 ± 7.3 | 48.4 ± 13.2 | 2.7 ± 0.3 | > 50 | 99 ± 0.4 | 9.5 ± 1 | – | IC50 (ZIKV NS2B/NS3; [5]): 3.2 µM; IC50 (ZIKV NS2B/NS3; [6]): 3.04 µM; IC50 (ZIKV NS2B/NS3; [7]): 3.6 µM and 3.61 µM; IC50 (ZIKV NS2B/NS3; [8]): 3.78 µM; screening at 20 μM (%) (ZIKV NS2B/NS3; ZIKV NS2B/NS3, 20 μM compound): 98 ± 1.1%; mechanism of inhibition (ZIKV NS2B/NS3): noncompetitive; inhibition at 20 µM (ZIKV NS2B/NS3): 98%
CCC=CCCOC(=O)c1cc(O)c(O)c(O)c1 [Compound 2k] | 41.9 | – | – | 6.1 ± 0.6 | 28 ± 4 | 100 ± 0.1 | – | 86 ± 0.8 | –
COC(=O)c1cc(O)c(O)c(O)c1 [Compound 2, methyl gallate] | – | 52.9 ± 19.2 | > 150 | – | – | – | 4.5 ± 1.8 | – | effect at 200 μM (%) (SARS-CoV-2 M^pro; [3]): 68.0%; inhibition at 200 µM (SARS-CoV-2 M^pro): 68%
